Tests used:
Assay in all cases: relative viability (nuclei count vs DMSO), 5 days (fraction); higher = more cells survive
[1] = compound: C[As](C)SC[C@H](NC(=O)CC[C@H](N)C(=O)O)C(=O)NCC(=O)O [Darinaparsin] + O=C(CCCCCCC(=O)Nc1ccccc1)NO [Vorinostat] (partner 1 µM)
How it was run: (§1)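 After 5 days of treatment, lung cancer cells in 1536-well plates were fixed and stained in a single step (final 0.05% Triton X-100, 1% formaldehyde, 1 ug/ml Hoechst) and their nuclei counted on 4× images. Treatment had been applied by pin tool the day after seeding as one drug alone or as a fixed anchor-drug dose with five library-drug doses (not always all listed) in √10 steps. Relative viability is the nuclei count of treated wells divided by that of vehicle wells, and values are medians of duplicate plates.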

AZ628 + Tozasertib = compound: CC1=C(C=C(C=C1)NC(=O)C2=CC(=CC=C2)C(C)(C)C#N)NC3=CC4=C(C=C3)N=CN(C4=O)C [AZ628] + Cc1cc(Nc2cc(N3CCN(C)CC3)nc(Sc3ccc(NC(=O)C4CC4)cc3)n2)n[nH]1 [Tozasertib] (partner 0.1 µM)
How it was run: as §1

QS11 + OSI-027 = compound: C1CC2=C(C1)C=C(C=C2)OC3=NC(=C4C(=N3)N(C=N4)CC5=CC=C(C=C5)C6=CC=CC=C6)N[C@@H](CC7=CC=CC=C7)CO [QS11] + COc1cccc2cc(-c3nc([C@H]4CC[C@H](C(=O)O)CC4)n4ncnc(N)c34)[nH]c12 [OSI-027] (partner 0.5 µM)
How it was run: as §1

[2] = compound: C[As](C)SC[C@H](NC(=O)CC[C@H](N)C(=O)O)C(=O)NCC(=O)O [Darinaparsin] + C[C@@H](Oc1cc(-c2cnn(C3CCNCC3)c2)cnc1N)c1c(Cl)ccc(F)c1Cl [Crizotinib] (partner 1 µM)
How it was run: as §1

Row | Cell Line | relative viability ([1]; first compound 0.08 µM) | relative viability ([1]; first compound 0.8 µM) | relative viability ([1]; first compound 2.53 µM) | relative viability ([1]; first compound 8 µM) | relative viability (AZ628 + Tozasertib; first compound 0.08 µM) | relative viability (AZ628 + Tozasertib; first compound 0.253 µM) | relative viability (AZ628 + Tozasertib; first compound 0.8 µM) | relative viability (AZ628 + Tozasertib; first compound 2.53 µM) | relative viability (AZ628 + Tozasertib; first compound 8 µM) | relative viability (QS11 + OSI-027; first compound 0.08 µM) | relative viability (QS11 + OSI-027; first compound 0.253 µM) | relative viability (QS11 + OSI-027; first compound 0.8 µM) | relative viability (QS11 + OSI-027; first compound 2.53 µM) | relative viability (QS11 + OSI-027; first compound 8 µM) | relative viability ([2]; first compound 0.08 µM) | relative viability ([2]; first compound 0.8 µM) | relative viability ([2]; first compound 2.53 µM) | relative viability ([2]; first compound 8 µM)
1 | NCI-H838 | 0.704 | 0.738 | 0.728 | 0.76 | 0.27 | 0.302 | 0.281 | 0.288 | 0.212 | 0.339 | 0.366 | 0.362 | 0.378 | 0.359 | 0.996 | 0.803 | 0.776 | 0.976
2 | NCI-H1355 | 0.703 | 0.617 | 0.488 | 0.683 | 0.548 | 0.512 | 0.628 | 0.495 | 0.269 | 0.392 | 0.324 | 0.334 | 0.35 | 0.334 | 1.13 | 1.06 | 0.852 | 1.18
3 | NCI-H1437 | 0.907 | 0.854 | 0.911 | 1.06 | 0.402 | 0.408 | 0.428 | 0.418 | 0.375 | 0.95 | 0.946 | 0.77 | 0.834 | 0.827 | 1.23 | 0.865 | 0.716 | 1.32
4 | NCI-H1650 | 0.64 | 0.499 | 0.628 | 0.683 | 0.469 | 0.494 | 0.337 | 0.368 | 0.206 | 0.58 | 0.549 | 0.642 | 0.547 | 0.396 | 1.14 | 0.98 | 0.795 | 1.17
